Measured values reported in patent publication US20260200923A1, “HETEROCYCLIC COMPOUNDS TARGETING THE NUDT5 PROTEIN” (Oxford University Innovation Limited, priority 2022, published 2026).

Experiments:
luciferase-tagged NUDT5 = target: T1, luciferase-tagged NUDT5 (Homo sapiens, UniProt Q9UKK9); assay: NanoBRET target engagement assay; assay type: cell-based; conditions: live cells, 2 h
T1 construct: expressed in transfected cells; host or cells: HEK293T
Procedure: For NanoBRET target engagement assay, intracellular TE Nano-Glo substrate/inhibitor (N2161, Promega) was used according to the manufacturer's instruction. In brief, 200,000 HEK293T cells/ml was seeded in a T-75 flask. N-terminal NanoLuciferse NUDT5 was reverse transfected into the cells using Fugene HD transfection reagent (E2312, Promega). After 24 h the transfected HEK293 (200,000 cells/ml) were replated onto a 384-well plate containing compounds. 2.5 nM NU008116a was used as the final tracer concentration. After 2 h, NanoLuc substrate and inhibitor was added into each well and the signals were measured by PHERAstar Microplate Reader.
Compounds were dispensed in the 384-well plates by using Echo Acoustic Dispenser.

WT HAP1 cells = assay: growth of WT HAP1 cells; assay type: cell-based; conditions: 72 h
Procedure: HAP1 (KBM7-derived, Horizon Discovery, C859), and HAP1 MTHFD1^KO, MTHFD1^K56R, and MTHFD1^K386E cell lines were cultured in Iscove's Modified Dulbecco's Medium (IMDM, Sigma), supplemented with 10% Fetal Bovine Serum (FBS, Sigma) and 1% Penicillin/Streptomycin (P/S, Sigma).
MTHFD1^KO cells in dialyzed FBS media were treated with a single nucleotide or folic acid metabolite for 72 hours. Cells were then stained with Hoechst, imaged, and counted using an Operetta (Perkin Elmer). For the AMPK activator studies, cells were stained with Hoechst, imaged, and counted using an Opera (Perkin Elmer). Similarly, MTHFD1^K56R cells in dialyzed FBS media were treated with adenosine for 72 hours. Cells were then stained with Hoechst, imaged, and counted using an Operetta (Perkin Elmer).

[1] = test system: patient-derived fibroblast lines with MTHFD1 mutations; assay: adenosine toxicity in fibroblasts from MTHFD1 deficiency patients; assay type: cell-based; conditions: patient-derived cells
Procedure: Patient-derived fibroblast and control fibroblast lines were cultured in Minimum Essential Medium alpha media (MEMα, no nucleosides, Gibco), supplemented with 10% FBS and 1% P/S. These patient-derived fibroblast lines were previously characterized in Burda et al. 2015. For the experiments using dialyzed FBS, the dialyzed FBS was purchased from Gibco and added to IMDM at a final concentration of 10%. All the cell lines were incubated in 5% CO2 atmosphere at 37° C.

HAP-1 cells = assay: 6-thioguanine assay (CellTiter-Glo viability); assay type: cell-based; conditions: 0.2 μg/ml 6-thioguanine, 72 h; HAP1 (and NB4, FIG. 11)
Procedure: NB-4 and HAP1 cells (1000 cells/well in 40 uL) were seeded onto a 384-well plate containing compounds. DMSO or 0.2 μg/ml 6-thioguanine (A4882, Sigma-Aldrich) was added into respective wells. After 72 h incubation cell viability was measured by using CellTiter-Glo 2.0 Assay (G9242, Promega). Compounds in the 384-well plates were prepared by using Echo Acoustic Dispenser.

HAP1 cells = assay: untargeted global proteomics; assay type: cell-based, human; conditions: 100 nM, 6 and 24 h
Procedure: Proteomics samples were digested with trypsin using STrap columns following the manufacturer's protocol (C02-micro, ProtiFi). For untargeted global proteomics HAP1 cells were treated with DMSO or 100 nM dNUDT5 for 6 h or 24 h. Then, the cell pellets were collected and lysed in 5% SDS containing 1 μL/mL benzonase (E1014, Millipore) and subsequent short sonication to shear genomic DNA (1× 2 s pulse, 20% amplitude, microtip, Sonics Vibra Cell). 50 μg protein from the total cell lysate or 80% of the elution fraction of the chemical pulldown were first reduced by 20 mM dithiothreitol (M02712, Fluorochem), and alkylated by 40 mM iodoacetamide (I1149, Sigma). Phosphoric acid and S-Trap protein binding buffer were added into the sample lysates. Then, the SDS lysate/S-Trap buffer were loaded into a S-Trap column (C02-micro-80, ProtiFi). 1 μg of trypsin (V5111, Promega) was used to digest each sample at 37° C. for 20 h. The samples were then eluted and dried by vacuum centrifugation. […]
Raw data were searched against the human database (UP000005640, downloaded 08/21) using DIA-NN (Demichev et al. 2020 Nature Methods) by enabling FASTA digest for library free search and Deep learning-based spectra, RTs and IMs prediction. […] The protein groups matrix was further analysed using Perseus (1.6.2.1) or R studio (4.1.1). […] Proteins were removed if detected less than 2 times in each group. […]

NUDT5 = NUDT5 (Homo sapiens, UniProt Q9UKK9); assay: NUDT5 degradation by Western blot in HAP-1 cells; assay type: cell-based; set-up: endogenous in cells
Procedure: For Western blots, proteins were separated on polyacrylamide gels with SDS running buffer (50 mM Tris, 380 mM Glycine, 7 mM SDS) and transferred to PVDF membranes. All membranes were then blocked with blocking buffer (5% w/v milk powder, BioRad) in TBST (50 mM Tris (tris(hydroxymethylaminomethane), 150 mM NaCl, 0.05% (v/v) Tween 20, adjusted to pH 7.6) Proteins were probed with antibodies against phospho-AMPK (50081S, 1:2000, Cell Signaling Technologies), AMPK (5832S, 1:2000, Cell Signaling Technologies), PML (ab179466, 1:1000, abeam), PARP8 (NBP213733, 1:1000, Novus Biologicals), ATF2/7 (82870, 1:1000, Cell Signaling Technologies), alpha-Tubulin (ab7291, 1:1000, Abeam), phospho-UBTF (ab182583, 1:1000, abeam), UBTF (HPA006385, 1:1000, Sigma), RBM38 (AV40862, 1:1000, Sigma), or NUDT5 (ab129172, 1:1000, abeam), detected by HRP (horse-radish peroxidase) conjugated donkey anti-rabbit IgG antibody (Pierce) or donkey anti-mouse antibody IgG antibody (Pierce) and visualized with Clarity ECL Western Blotting substrate (BioRad), according to provided protocol.

Structure (SMILES): Cn1c(=O)c2c(nc(N3CCN(C(=O)N4CCC(CN5CCN(c6ccc7c(c6)C(=O)N(C6CCC(=O)NC6=O)C7=O)CC5)CC4)CC3)n2Cc2nnc(-c3ccc(Cl)c(Cl)c3)o2)n(C)c1=O (stereo not drawn) [dNUDT5, 7-((5-(3,4-dichlorophenyl)-1,3,4-oxadiazol-2-yl)methyl)-8-(4-(4-((4-(2-(2,6-dioxopiperidin-3-yl)-1,3-dioxoisoindolin-5-yl)piperazin-1-yl)methyl)piperidine-1-carbonyl)piperazin-l-yl)-1,3-dimethyl-3,7-dihydro-1H-purine-2,6-dione]
- NUDT5 engagement / recruitment (luciferase-tagged NUDT5): engaged their cognate target NUDT5 in live cells
- effect on viability of WT cells (WT HAP1 cells): did not affect the viability of WT cells
- effect on adenosine-mediated toxicity [1]: reverses adenosine-mediated toxicity
- rescue of 6-TG toxicity (HAP-1 cells): able to rescue 6-TG toxicity
- proteome-wide specificity of degradation (HAP1 cells): highly specific for NUDT5 with no other protein being degraded
- DC50 (NUDT5): 0.3 nM
